# From patent US20110166191A1, “3-(2-amino-ethyl)-5-(3-cyclohexyl-propylidene)-thiazolidine-2,4-dione and its derivatives as multiple signaling pathway inhibitors and for the treatment of cancer” (priority 2010, published 2011)
# Experiments:
# phosphorylation of Akt = test: Western blot analysis of p-Akt in U937 cells; type: cell-based; conditions: PMA/TPA 200 nM stimulation
# Description: (§1) FIG. 1. U937 cells were treated with Formula II prepared as described in Example 4 [i.e. 3-(2-aminoethyl)-5-(3-cyclohexylpropylidene)thiazolidine-2,4-dione] for 1 h, then stimulated with PMA (200 nM) for 30 min. Lysates were analyzed for p-Akt, p-MEK, p-ERK and α-tubulin by western blot analysis.
# (§2) Cells (5×10^5 per ml) were treated with various concentrations of test compound at 37° C. (5% CO2) for 3 hrs, then stimulated with TPA at a final concentration of 200 nM for 20 min. Samples from whole-cell pellets were prepared and 30 μg protein for each condition was subjected to SDS-PAGE, transferred onto a PVDF membrane, and blocked with 5% fat-free milk for 30 min. The membrane is probed with primary antibodies overnight at 4° C. followed by incubation with horseradish peroxidase-labeled anti-mouse IgG (1:5000, BD Biosciecne). The immunoreactive bands are detected by chemiluminescence methods (Pierce) and visualized on Kodak Omat film. The following primary antibodies were used: phospho-p44/42 MAPK (ERK1/2, Thr202/Tyr204), p44/42 MAPK, phospho-p90RSK (Thr359/Ser363), RSK1/RSK2/RSK3 (Cell Signaling). Blots were reprobed with antibodies against α-tubulin to ensure equal loading and transfer of proteins.
# CHK1 = target: T1, CHK1 (Homo sapiens, UniProt O14757); test: In vitro kinase screening; type: biochemical; conditions: CHK1, 10 μM concentration
# T1 construct: Caliper Life Sciences (screening service)
# Description: (§3) Formula II [3-(2-aminoethyl)-5-(3-cyclohexylpropylidene)thiazolidine-2,4-dione] was screened against a panel of kinases at 10 μM concentration by Caliper Life Sciences according to their established protocol.
# Erk2 = target: T2, Erk2 (Homo sapiens, UniProt P28482); test: In vitro kinase screening; type: biochemical; conditions: Erk2, 10 μM concentration
# T2 construct: Caliper Life Sciences (screening service)
# Description: as §3
# c-TAK1 = target: T3, c-TAK1 (Homo sapiens, UniProt P27448); test: In vitro kinase screening; type: biochemical; conditions: c-TAK1, 10 μM concentration
# T3 construct: Caliper Life Sciences (screening service)
# Description: as §3
# HGK = target: T4, HGK (Homo sapiens, UniProt O95819); test: In vitro kinase screening; type: biochemical; conditions: 10 μM concentration
# T4 construct: Caliper Life Sciences (screening service)
# Description: as §3
# FLT3 = target: T5, FLT3 (Homo sapiens, UniProt P36888); test: In vitro kinase screening; type: biochemical; conditions: FLT3, 10 μM concentration
# T5 construct: Caliper Life Sciences (screening service)
# Description: as §3
# PDK1 = target: T6, PDK1 (Homo sapiens, UniProt O15530); test: In vitro kinase screening; type: biochemical; conditions: PDK1, 10 μM concentration
# T6 construct: Caliper Life Sciences
# Description: as §3
# CHK2 = target: T7, CHK2 (Homo sapiens, UniProt O96017); test: In vitro kinase screening; type: biochemical; conditions: CHK2, 10 μM concentration
# T7 construct: Caliper Life Sciences (screening service)
# Description: as §3
# Ck1d = target: T8, Ck1d (Homo sapiens, UniProt P48730); test: In vitro kinase screening; type: biochemical; conditions: 10 μM concentration
# T8 construct: Caliper Life Sciences (screening service)
# Description: as §3
# MAPKAPK2 = target: T9, MAPKAPK2 (Homo sapiens, UniProt P49137); test: In vitro kinase screening; type: biochemical; conditions: MAPKAPK2, 10 μM concentration
# T9 construct: Caliper Life Sciences
# Description: as §3
# PI3Ka = target: T10, PI3Ka (Homo sapiens, UniProt P42336); test: In vitro kinase screening; type: biochemical; conditions: 10 μM concentration
# T10 construct: Caliper Life Sciences
# Description: as §3
# PKGa = target: T11, PKGa (Homo sapiens, UniProt Q13976); test: In vitro kinase screening; type: biochemical; conditions: 10 μM concentration
# T11 construct: Caliper Life Sciences
# Description: as §3
# LCK = target: T12, LCK (Homo sapiens, UniProt P06239); test: In vitro kinase screening; type: biochemical; conditions: 10 μM concentration
# T12 construct: Caliper Life Sciences
# Description: as §3
# AMPK = test: In vitro kinase screening; type: biochemical; conditions: 10 μM concentration
# Description: as §3
# SRC = target: T13, SRC (Homo sapiens, UniProt P12931); test: In vitro kinase screening; type: biochemical; conditions: 10 μM concentration
# T13 construct: purchased Caliper Life Sciences
# Description: as §3
# PKCz = target: T14, PKCz (Homo sapiens, UniProt Q05513); test: In vitro kinase screening; type: biochemical; conditions: 10 μM concentration
# T14 construct: Caliper Life Sciences
# Description: as §3
# c-Raf = target: T15, c-Raf (Homo sapiens, UniProt P04049); test: In vitro kinase screening; type: biochemical; conditions: 10 μM concentration
# T15 construct: Caliper Life Sciences (screening service)
# Description: as §3
# SYK = target: T16, SYK (Homo sapiens, UniProt P43405); test: In vitro kinase screening; type: biochemical; conditions: 10 μM concentration
# T16 construct: purchased Caliper Life Sciences
# Description: as §3
# MST2 = target: T17, MST2 (Homo sapiens, UniProt Q13188); test: In vitro kinase screening; type: biochemical; conditions: MST2, 10 μM concentration
# T17 construct: Caliper Life Sciences
# Description: as §3
# ROCK2 = target: T18, ROCK2 (Homo sapiens, UniProt O75116); test: In vitro kinase screening; type: biochemical; conditions: ROCK2, 10 μM concentration
# T18 construct: Caliper Life Sciences
# Description: as §3
# PKCb2 = target: T19, PKCb2 (Homo sapiens, UniProt P05771); test: In vitro kinase screening; type: biochemical; conditions: PKCb2, 10 μM concentration
# T19 construct: Caliper Life Sciences
# Description: as §3
# IGF1R = target: T20, IGF1R (Homo sapiens, UniProt P08069); test: In vitro kinase screening; type: biochemical; conditions: 10 μM concentration
# T20 construct: Caliper Life Sciences (screening service)
# Description: as §3
# MSK1 = target: T21, MSK1 (Homo sapiens, UniProt O75582); test: In vitro kinase screening; type: biochemical; conditions: MSK1, 10 μM concentration
# T21 construct: Caliper Life Sciences
# Description: as §3
# FGFR1 = target: T22, FGFR1 (Homo sapiens, UniProt P11362); test: In vitro kinase screening; type: biochemical; conditions: FGFR1, 10 μM concentration
# T22 construct: Caliper Life Sciences (screening service)
# Description: as §3
# PRAK = target: T23, PRAK (Homo sapiens, UniProt Q8IW41); test: In vitro kinase screening; type: biochemical; conditions: 10 μM concentration
# T23 construct: Caliper Life Sciences
# Description: as §3
# p-MEK = test: Western blot analysis of p-MEK in U937 cells; type: cell-based; conditions: PMA/TPA 200 nM stimulation
# Description: as §1, §2
# B16F10 melanoma cells = test: Reduction of murine B16F10 melanoma lung nodules in mice; type: in vivo, B6C3F1 mice; conditions: 20 mg/kg daily gavage
# Description: FIG. 5. […] Female B6C3F1 mice (10-11/group) were injected with 2×10^5 B16F10 melanoma cells (i.v.), and treatment with 20 mg/kg dose daily (gavage) was started one day before the tumor cell injection and stopped at day 15 after tumor injection. Mice were sacrificed at day 18 and lungs were removed for counting and observation.
# Female B6C3F1 mice (10-11/group) were injected with 2×10^5 B16F10 melanoma cells (i.v.), and treatment with the compound produced as described in Example 4i.e. 3-(2-aminoethyl)-5-(3-cyclohexylpropylidene)thiazolidine-2,4-dione, 20 mg/kg dosage daily (gavage) was started one day before the tumor cell injection and stopped at day 15 after tumor injection. Mice were sacrificed at day 18 and lungs were removed for counting and observation.
# T7 sequence (O96017 whole entry): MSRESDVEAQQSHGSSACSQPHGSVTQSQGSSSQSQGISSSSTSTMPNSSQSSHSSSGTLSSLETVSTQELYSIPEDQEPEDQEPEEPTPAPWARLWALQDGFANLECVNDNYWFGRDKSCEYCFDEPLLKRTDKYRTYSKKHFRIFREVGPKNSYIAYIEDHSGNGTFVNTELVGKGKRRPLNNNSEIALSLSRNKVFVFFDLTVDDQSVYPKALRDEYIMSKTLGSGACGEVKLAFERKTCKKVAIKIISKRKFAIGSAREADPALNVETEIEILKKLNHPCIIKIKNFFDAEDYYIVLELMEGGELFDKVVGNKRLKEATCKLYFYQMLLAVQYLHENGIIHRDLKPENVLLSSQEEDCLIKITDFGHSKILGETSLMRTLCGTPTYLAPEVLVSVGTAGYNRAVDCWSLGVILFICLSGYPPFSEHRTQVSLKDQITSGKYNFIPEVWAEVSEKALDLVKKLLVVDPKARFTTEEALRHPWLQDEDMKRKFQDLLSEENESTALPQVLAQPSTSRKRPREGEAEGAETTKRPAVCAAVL
# T8 sequence (P48730 whole entry): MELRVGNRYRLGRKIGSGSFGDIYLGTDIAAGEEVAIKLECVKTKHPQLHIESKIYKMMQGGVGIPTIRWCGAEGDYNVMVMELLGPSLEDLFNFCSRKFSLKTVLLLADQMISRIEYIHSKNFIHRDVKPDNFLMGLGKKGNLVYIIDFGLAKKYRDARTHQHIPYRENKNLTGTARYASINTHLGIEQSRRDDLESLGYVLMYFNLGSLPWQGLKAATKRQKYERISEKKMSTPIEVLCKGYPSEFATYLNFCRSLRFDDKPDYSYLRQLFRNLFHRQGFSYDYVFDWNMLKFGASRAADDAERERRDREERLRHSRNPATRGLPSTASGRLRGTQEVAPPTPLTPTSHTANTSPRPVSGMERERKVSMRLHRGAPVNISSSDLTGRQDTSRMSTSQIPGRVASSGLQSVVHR
# T2 sequence (P28482 whole entry): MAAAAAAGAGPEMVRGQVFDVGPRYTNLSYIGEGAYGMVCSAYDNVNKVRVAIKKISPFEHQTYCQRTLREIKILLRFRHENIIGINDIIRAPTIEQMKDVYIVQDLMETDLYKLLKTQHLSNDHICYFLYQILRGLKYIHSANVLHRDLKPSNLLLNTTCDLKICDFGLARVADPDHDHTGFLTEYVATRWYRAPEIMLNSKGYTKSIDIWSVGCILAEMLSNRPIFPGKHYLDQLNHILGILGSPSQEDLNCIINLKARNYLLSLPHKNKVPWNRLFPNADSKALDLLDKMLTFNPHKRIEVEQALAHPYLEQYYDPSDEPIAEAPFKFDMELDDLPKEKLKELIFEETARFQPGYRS
# T1 sequence (O14757 whole entry): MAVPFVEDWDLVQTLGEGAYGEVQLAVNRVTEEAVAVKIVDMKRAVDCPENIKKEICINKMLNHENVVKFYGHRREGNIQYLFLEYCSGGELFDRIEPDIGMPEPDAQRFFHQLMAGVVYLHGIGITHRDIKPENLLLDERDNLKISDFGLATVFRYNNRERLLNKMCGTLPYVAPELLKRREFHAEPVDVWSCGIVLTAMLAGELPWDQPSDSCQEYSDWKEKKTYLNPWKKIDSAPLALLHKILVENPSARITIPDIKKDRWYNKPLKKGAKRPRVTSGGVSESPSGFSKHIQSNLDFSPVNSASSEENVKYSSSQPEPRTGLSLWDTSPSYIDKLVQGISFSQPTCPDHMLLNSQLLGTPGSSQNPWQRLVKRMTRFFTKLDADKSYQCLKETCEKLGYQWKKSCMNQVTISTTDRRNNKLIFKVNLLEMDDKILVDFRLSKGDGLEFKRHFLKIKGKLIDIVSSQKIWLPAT
# T18 sequence (O75116 whole entry, species assumed): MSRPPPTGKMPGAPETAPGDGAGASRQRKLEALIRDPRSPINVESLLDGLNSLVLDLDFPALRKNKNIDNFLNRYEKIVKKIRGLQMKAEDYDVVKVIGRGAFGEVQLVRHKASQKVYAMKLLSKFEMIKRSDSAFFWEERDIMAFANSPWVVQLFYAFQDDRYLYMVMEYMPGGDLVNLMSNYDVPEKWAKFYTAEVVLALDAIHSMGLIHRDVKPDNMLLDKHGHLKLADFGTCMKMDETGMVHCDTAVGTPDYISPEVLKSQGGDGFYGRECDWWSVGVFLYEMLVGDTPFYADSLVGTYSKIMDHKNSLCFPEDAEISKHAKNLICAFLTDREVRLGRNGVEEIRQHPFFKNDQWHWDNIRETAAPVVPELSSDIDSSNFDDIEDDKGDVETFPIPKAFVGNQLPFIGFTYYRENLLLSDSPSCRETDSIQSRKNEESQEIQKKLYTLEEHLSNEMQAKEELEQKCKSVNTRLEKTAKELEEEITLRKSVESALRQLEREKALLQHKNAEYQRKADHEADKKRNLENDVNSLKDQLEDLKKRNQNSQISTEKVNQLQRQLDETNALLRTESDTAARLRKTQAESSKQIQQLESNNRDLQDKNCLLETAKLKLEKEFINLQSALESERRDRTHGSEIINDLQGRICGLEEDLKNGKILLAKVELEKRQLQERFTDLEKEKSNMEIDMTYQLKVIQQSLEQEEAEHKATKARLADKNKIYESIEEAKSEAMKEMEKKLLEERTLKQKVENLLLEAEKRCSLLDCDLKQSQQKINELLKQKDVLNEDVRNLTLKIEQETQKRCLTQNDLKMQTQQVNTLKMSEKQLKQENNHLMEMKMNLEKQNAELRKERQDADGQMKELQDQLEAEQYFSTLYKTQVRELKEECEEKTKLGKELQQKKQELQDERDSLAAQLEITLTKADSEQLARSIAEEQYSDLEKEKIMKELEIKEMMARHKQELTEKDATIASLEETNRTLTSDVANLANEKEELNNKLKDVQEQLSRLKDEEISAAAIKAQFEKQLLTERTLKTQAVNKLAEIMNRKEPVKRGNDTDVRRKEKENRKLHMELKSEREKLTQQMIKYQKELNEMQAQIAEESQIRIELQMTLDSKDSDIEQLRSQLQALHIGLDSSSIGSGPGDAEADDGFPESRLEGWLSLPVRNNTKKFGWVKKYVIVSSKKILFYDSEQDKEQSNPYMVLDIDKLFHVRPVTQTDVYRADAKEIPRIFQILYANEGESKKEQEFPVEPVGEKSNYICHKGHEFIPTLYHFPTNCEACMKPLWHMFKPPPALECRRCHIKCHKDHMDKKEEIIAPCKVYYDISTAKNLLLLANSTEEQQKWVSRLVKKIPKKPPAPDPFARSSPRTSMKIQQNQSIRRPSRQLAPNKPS
# T3 sequence (P27448 whole entry): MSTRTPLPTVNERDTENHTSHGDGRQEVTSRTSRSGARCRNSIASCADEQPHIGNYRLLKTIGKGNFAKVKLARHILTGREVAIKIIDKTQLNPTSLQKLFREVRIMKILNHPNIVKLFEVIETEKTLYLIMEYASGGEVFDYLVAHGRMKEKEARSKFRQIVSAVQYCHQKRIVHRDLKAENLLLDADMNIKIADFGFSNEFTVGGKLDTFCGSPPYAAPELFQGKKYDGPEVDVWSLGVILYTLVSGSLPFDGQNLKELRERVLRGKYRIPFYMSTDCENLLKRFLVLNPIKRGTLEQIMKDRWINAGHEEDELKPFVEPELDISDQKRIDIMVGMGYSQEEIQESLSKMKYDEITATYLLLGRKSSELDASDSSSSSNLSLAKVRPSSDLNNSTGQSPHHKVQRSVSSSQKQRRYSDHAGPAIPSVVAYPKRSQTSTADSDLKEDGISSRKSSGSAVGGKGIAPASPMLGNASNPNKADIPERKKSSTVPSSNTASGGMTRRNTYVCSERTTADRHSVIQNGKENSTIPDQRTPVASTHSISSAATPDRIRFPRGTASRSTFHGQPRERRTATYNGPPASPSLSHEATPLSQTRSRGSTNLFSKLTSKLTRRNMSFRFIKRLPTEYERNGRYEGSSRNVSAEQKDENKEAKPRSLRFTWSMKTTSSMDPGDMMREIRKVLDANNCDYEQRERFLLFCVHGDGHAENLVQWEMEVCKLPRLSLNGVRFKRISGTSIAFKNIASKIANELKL
# T23 sequence (Q8IW41 whole entry, species assumed): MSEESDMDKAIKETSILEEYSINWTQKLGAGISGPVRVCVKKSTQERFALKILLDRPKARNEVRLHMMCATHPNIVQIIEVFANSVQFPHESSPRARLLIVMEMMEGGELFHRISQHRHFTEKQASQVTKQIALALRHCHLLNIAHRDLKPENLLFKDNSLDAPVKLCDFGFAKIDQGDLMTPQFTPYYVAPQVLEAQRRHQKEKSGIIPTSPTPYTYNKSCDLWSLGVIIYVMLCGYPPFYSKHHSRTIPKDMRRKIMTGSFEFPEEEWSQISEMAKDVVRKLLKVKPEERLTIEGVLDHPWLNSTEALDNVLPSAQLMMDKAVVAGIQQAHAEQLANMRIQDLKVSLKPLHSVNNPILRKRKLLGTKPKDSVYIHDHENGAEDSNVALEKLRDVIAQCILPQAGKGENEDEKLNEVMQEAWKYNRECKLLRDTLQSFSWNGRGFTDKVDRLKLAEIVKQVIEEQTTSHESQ
# T12 sequence (P06239 whole entry, species assumed): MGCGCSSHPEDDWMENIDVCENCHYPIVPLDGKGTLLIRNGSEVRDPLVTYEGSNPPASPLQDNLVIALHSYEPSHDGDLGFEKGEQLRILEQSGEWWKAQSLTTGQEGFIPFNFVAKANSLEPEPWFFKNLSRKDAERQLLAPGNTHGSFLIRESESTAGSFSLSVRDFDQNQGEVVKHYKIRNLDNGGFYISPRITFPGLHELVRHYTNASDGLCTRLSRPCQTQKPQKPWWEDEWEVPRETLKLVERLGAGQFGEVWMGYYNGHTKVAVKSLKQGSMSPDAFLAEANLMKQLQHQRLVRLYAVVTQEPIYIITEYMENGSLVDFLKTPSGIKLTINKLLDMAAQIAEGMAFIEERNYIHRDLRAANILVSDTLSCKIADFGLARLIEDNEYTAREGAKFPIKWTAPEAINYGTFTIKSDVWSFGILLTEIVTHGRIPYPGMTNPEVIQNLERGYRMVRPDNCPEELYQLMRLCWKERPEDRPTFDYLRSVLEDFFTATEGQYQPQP
compound,measurement,setting,value
"NCCN1C(=O)S/C(=C\CCC2CCCCC2)C1=O [Example 4, 3-(2-aminoethyl)-5-(3-cyclohexylpropylidene)thiazolidine-2,4-dione]","phosphorylation of Akt (p-Akt, western blot)",phosphorylation of Akt,dose dependently inhibited the phosphorylation of Akt
same,inhibition at 10 µM,CHK1,11%
same,inhibition at 10 µM,Erk2,11%
same,inhibition at 10 µM,c-TAK1,6%
same,inhibition at 10 µM,HGK,-1%
same,inhibition at 10 µM,FLT3,38%
same,inhibition at 10 µM,PDK1,-2%
same,inhibition at 10 µM,CHK2,8%
same,inhibition at 10 µM,Ck1d,-5%
same,inhibition at 10 µM,MAPKAPK2,3%
same,inhibition at 10 µM,PI3Ka,45%
same,inhibition at 10 µM,PKGa,-2%
same,inhibition at 10 µM,LCK,4%
same,% Inhibition,AMPK,76%
same,inhibition at 10 µM,SRC,2%
same,inhibition at 10 µM,PKCz,-8%
same,inhibition at 10 µM,c-Raf,-1%
same,inhibition at 10 µM,SYK,9%
same,inhibition at 10 µM,MST2,-3%
same,inhibition at 10 µM,ROCK2,-1%
same,inhibition at 10 µM,PKCb2,16%
same,inhibition at 10 µM,IGF1R,-1%
same,inhibition at 10 µM,MSK1,6%
same,inhibition at 10 µM,FGFR1,3%
same,inhibition at 10 µM,PRAK,4%
same,p-MEK level (western blot),p-MEK,dose-dependently decreased the p-MEK level
same,lung tumor nodules,"B16F10 melanoma cells; B6C3F1 mice, B16F10 melanoma cells i.v., lungs at day 18",decreased the lung tumor nodules
same,oral bioavailability (in words),B16F10 melanoma cells; mice,orally bioavailable
